Results reported in patent publication US10370333B2 (Sanford Burnham Prebys Medical Discovery Institute, priority 2012, dated 2019).

Each compound was assayed against TNAP (Homo sapiens (Human), UniProt P05186) (assay: TNAP (PPi) inhibition assay, pyrophosphate as substrate).
Assay type: biochemical
Procedure, shortened: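 Secreted epitope-tagged human TNAP from transiently transfected COS-1 cells, dialyzed to remove phosphate. Inhibitors tested kinetically at pH 7.4 with PPi as substrate; released phosphate quantified colorimetrically with Biomol Green reagent.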

| IC50 [nM] | SMILES |
| --- | --- |
| < 100 | COC(=O)c1ccc(-c2cncc(NS(=O)(=O)c3cc(OC)ccc3OC)c2)cc1 [Example III-28, 4-[5-(2,5-Dimethoxy-benzenesulfonylamino)-pyridin-3-yl]-benzoic Acid methyl ester] |
| 100 to 1000 | COc1ccc(C(=O)NCCN(C)C)cc1S(=O)(=O)Nc1cnc2ccccc2c1 [Example II-21, N-(2-Dimethylamino-ethyl)-4-methoxy-3-(quinolin-3-ylsulfamoyl)-benzamide] |
| < 100 | COc1ccc(Br)cc1S(=O)(=O)Nc1cncc(-c2ccccc2Cl)c1 [Example III-41, 5-Bromo-N-[5-(2-chloro-phenyl)-pyridin-3-yl]-2-methoxy-benzenesulfonamide] |
| < 100 | COc1ccc(OC)c(S(=O)(=O)Nc2cncc(C(=O)NC3CCCCC3)c2)c1 [Example IV-39, 5-(2,5-Dimethoxyphenylsulfonamido)-N-cyclohexylnicotinamide] |
| > 1000 | COc1ccc(OC)c(S(=O)(=O)Nc2ccc(N3CCN(C)CC3)nc2)c1 [Example VIII-20, 2,5-Dimethoxy-N-[6-(4-methyl-piperazin-1-yl)-pyridin-3-yl]-benzenesulfonamide] |
| < 100 | O=S(=O)(Nc1cncc(-c2ccco2)c1)c1cc(Cl)ccc1OC(F)(F)F [Example XI-12, 5-Chloro-N-(5-(furan-2-yl)pyridin-3-yl)-2-(trifluoromethoxy)benzenesulfonamide] |
| 100 to 1000 | COc1ccc(OC)c(S(=O)(=O)Nc2cnc3ccc(CN(C)C)cc3c2)c1 [Example IX-15] |
| < 100 | COc1ccc(Br)cc1S(=O)(=O)Nc1cncc(C(=O)OC2CCCCC2)c1 [Example IV-4, Cyclohexyl 5-(5-bromo-2-methoxyphenylsulfonamido)nicotinate] |
| < 100 | COc1ccc(Cl)cc1S(=O)(=O)Nc1cncc(-c2ccco2)c1 [Example III-69, 5-Chloro-N-(5-(furan-2-yl)pyridin-3-yl)-2-methoxybenzenesulfonamide] |
| > 1000 | COCCNc1ccc(NS(=O)(=O)c2cc(OC)ccc2OC)cn1 [Example VIII-12, 2,5-Dimethoxy-N-(6-((2-methoxyethyl)amino)pyridin-3-yl)benzenesulfonamide] |
| > 1000 | CCN(CC)c1ccc(NS(=O)(=O)c2cc(OC)ccc2OC)cn1 [Example VIII-10, N-(6-(Diethylamino)pyridin-3-yl)-2,5-dimethoxybenzenesulfonamide] |
| < 100 | COc1ccc(-c2cncc(NS(=O)(=O)c3cc(Br)ccc3OC)c2)c(OC)c1 [Example III-56, 5-Bromo-N-(5-(2,4-dimethoxyphenyl)pyridin-3-yl)-2-methoxybenzenesulfonamide] |
| > 1000 | COc1ccc(-c2ccncc2)cc1S(=O)(=O)Nc1cccnc1 [Example I-10, 2-Methoxy-5-pyridin-4-yl-N-pyridin-3-yl-benzenesulfonamide] |
| < 100 | COc1ccc(Br)cc1S(=O)(=O)Nc1cnc2ccc(O)cc2c1 [Example IX-1, 5-Bromo-N-(6-hydroxyquinolin-3-yl)-2-methoxybenzenesulfonamide] |
| < 100 | O=S(=O)(Nc1cnc2ccccc2c1)c1cc(Br)ccc1OC(F)(F)F [Example X-1, 5-Bromo-N-quinolin-3-yl-2-trifluoromethoxy-benzenesulfonamide] |
| 100 to 1000 | COc1ccc(C(=O)N2CCOCC2)cc1S(=O)(=O)Nc1cnc2ccccc2c1 [Example II-23, 2-Methoxy-5-(morpholine-4-carbonyl)-N-quinolin-3-yl-benzenesulfonamide] |
| 100 to 1000 | COc1ccc(Br)cc1S(=O)(=O)Nc1cncc(-c2cccc(C)c2)c1 [Example III-50, 5-Bromo-2-methoxy-N-(5-m-tolyl-pyridin-3-yl)-benzenesulfonamide] |
| > 1000 | COc1c(Cl)cccc1S(=O)(=O)Nc1cccnc1 [Example I-13, 3-Chloro-2-methoxy-N-pyridin-3-yl-benzenesulfonamide] |
| < 100 | COc1ccc(OC)c(S(=O)(=O)Nc2cnc3ccc(O)cc3c2)c1 [Example IX-3, N-(6-Hydroxyquinolin-3-yl)-2,5-dimethoxybenzenesulfonamide] |
| 100 to 1000 | COc1ccc(Cl)cc1S(=O)(=O)Nc1cncc(-c2ccc(OCc3ccccc3)cc2)c1 [Example III-6, N-(5-(4-(benzyloxy)phenyl)pyridin-3-yl)-5-chloro-2-methoxybenzenesulfonamide] |
| > 1000 | COc1ccc(Br)cc1S(=O)(=O)N(Cc1ccccc1)c1cnc2ccccc2c1 [Example VII-6, 5-Bromo-N-benzyl-2-methoxy-N-(quinolin-3-yl)benzenesulfonamide] |
| < 100 | COc1ccc(OC)c(S(=O)(=O)Nc2cncc(-c3ccccn3)c2)c1 [Example III-58, N-([2,3′-Bipyridin]-5′-yl)-2,5-dimethoxybenzenesulfonamide] |
| 100 to 1000 | CCCNC(=O)c1ccc(OC)c(S(=O)(=O)Nc2cnc3ccccc3c2)c1 [Example II-17, 4-Methoxy-N-propyl-3-(quinolin-3-ylsulfamoyl)-benzamide] |
| > 1000 | COc1ccc(S(=O)(=O)Nc2cnc3ccccc3c2)cc1Cl [Example II-11, 3-Chloro-4-methoxy-N-quinolin-3-yl-benzenesulfonamide] |
| > 1000 | COc1ccc(OC)c(S(=O)(=O)N(CCN(C)C)c2cnc3ccccc3c2)c1 [Example VII-19, N-(2-(Dimethylamino)ethyl)-2,5-dimethoxy-N-(quinolin-3-yl)benzenesulfonamide] |
| < 100 | O=S(=O)(Nc1cncc(-c2ccc(F)cc2)c1)c1cc(Cl)ccc1OC(F)(F)F [Example XI-8, 5-Chloro-N-(5-(4-fluorophenyl)pyridin-3-yl)-2-(trifluoromethoxy)benzenesulfonamide] |
| > 1000 | COc1ccc(OC)c(S(=O)(=O)Nc2cscn2)c1 |
| 100 to 1000 | COc1ccc(Br)cc1S(=O)(=O)Nc1cncc(-c2ccccc2C(F)(F)F)c1 [Example III-44, 5-Bromo-2-methoxy-N-[5-(2-trifluoromethyl-phenyl)-pyridin-3-yl]-benzenesulfonamide] |

| SMILES | IC50 [nM] |
| --- | --- |
| COc1ccc(Br)cc1S(=O)(=O)Nc1cncc(C(=O)Nc2ccccc2)c1 [Example IV-23, 5-(5-Bromo-2-methoxyphenylsulfonamido)-N-phenylnicotinamide] | 100 to 1000 |
| O=S(=O)(Nc1cncc(-c2ccccn2)c1)c1cc(Cl)ccc1OC(F)(F)F [Example XI-17, N-([2,3′-Bipyridin]-5′-yl)-5-chloro-2-(trifluoromethoxy)benzenesulfonamide] | 100 to 1000 |
| COc1ccc(Cl)cc1S(=O)(=O)Nc1cncc(-c2cnn(C)c2)c1 [Example III-90, 5-Chloro-2-methoxy-N-(5-(1-methyl-1H-pyrazol-4-yl)pyridin-3-yl)benzenesulfonamide] | < 100 |
| COc1ccc(OC(F)(F)F)cc1S(=O)(=O)Nc1cncc(C(=O)NC2CCCCC2)c1 [Example XII-22, 5-(2-Methoxy-5-(trifluoromethoxy)phenylsulfonamido)-N-cyclohexylnicotinamide] | 100 to 1000 |
| CCCNC(=O)c1cncc(NS(=O)(=O)c2cc(Br)ccc2OC)c1 [Example IV-19, 5-(5-Bromo-2-methoxyphenylsulfonamido)-N-propylnicotinamide] | 100 to 1000 |
| COc1ccc(OC)c(S(=O)(=O)Nc2cncc(-c3ccc(Br)cc3)c2)c1 [Example III-22, N-[5-(4-Bromo-phenyl)-pyridin-3-yl]-2,5-dimethoxy-benzenesulfonamide] | 100 to 1000 |
